According to patent publication US5900406A, “Use of antibiotics of the type 2-deoxystreptamine substituted with aminosugars to inhibit growth of microorganisms containing group I introns” (NZYM, Inc., priority 1991, dated 1999):
Read-outs that look alike come from different tables or passages of the source.

Tests used:
[1] = test system: td intron (group I intron of the thymidylate synthase gene of phage T4, truncated version); assay type: biochemical; conditions: for IC50: read-out: concentration giving approximately 50% inhibition of the second splice step of the td intron; for inhibition of group I splicing: at millimolar concentrations; for ability to inhibit the group I intron splice reaction: antibiotics known to interact with 23S rRNA
Procedure: In vitro-transcribed and gel-purified^8 preRNA from a truncated version of the td intron^21 was incubated in a splicing buffer (50 mM Tris-HCl, pH 7.5, 5 mM MgCl2, 0.4 mM spermidine) for 10 min at 37° C. with GTP and gentamicin as indicated. Samples were separated on 5% acrylamide/7 M urea gels. RNA species are as follows: In-E2, intron-exon 2; L-ln, linear intron; E1-E2, ligated exons; E1, exon 1.
FIGS. 3a-c, Splicing experiments were done with the td intron as described in FIG. 2a, using several members of each family of aminoglycoside antibiotics (gentamicin, kanamycin and neomycin). Structures of the antibiotics can be found in Davies and Yagisaura in Biochemistry and Genetic Function Of Commercially Important Antibiotics, p. 329-354, Addison-Wesley, London, (1983) "Conc" is the antibiotic concentration at which about 50% inhibition was observed.
To monitor the splice process in vitro precursor RNA containing exon1, intron and exon2 was synthesized by in vitro transcription using bacteriophage RNA polymerase. During transcription, a radioactive labeled nucleotide was present in the nucleotide mixture and was incorporated in the RNA. This radioactive labeled RNA was then subjected to splicing conditions and after reaction the RNA splice products were separated from each other by electrophoresis on a denaturing acrylamide gel. The gel was dried and exposed for autoradiography.
Unspliced precursor RNA from the thymidylate synthase gene of the phage T4, which had been transcribed in vitro, and purified as previously described, (Schroeder, R., von Ahsen, U. & Belfort, M. Biochemistry 30, 3295-3303 (1991)) was incubated with increasing amounts of gentamicin under normal splicing conditions.
(§1) Materials and Methods: In vitro splicing experiments were performed with a truncated version of the td gene, containing 79 nt of exon I, 265 nt of intron sequences containing only the catalytic core (delta P6-2) and 21 nt of exon H (Schroeder, von Ahsen, & Belfort, 199 1, Biochemistry 30, 3295). The plasmids containing the Tetrahymena rRNA intron and the yeast mitochondrial cob intron I (the group II intron) were pBGST7 (Been & Cech, 1986, Cell 47, 207) and pBSbIl (Schmelzer and Schweyen, 1986, Cell 46, 557), respectively. The sunY intron is described in Michel et al. (1990, Genes & Development 4, 777). DNA was prepared by the alkaline-lysis procedure and linearized with appropriate restriction enzymes. Transcription was performed in a total volume of 20 μl at 30° C. for one (1) hour in buffer containing 40 mM Tris-HCl pH 7.5, 3 mM MgCl2, 0.4 mM spermidine, 1 mM of each NTP, 5 mM […], 10 units T7 RNA polymerase (Boehringer Mannheim), 10 μCi alpha-^35 S-CTP and 10 units RNAse inhibitor (Boehringer Mannheim). The reaction mixture was loaded on a 5% polyacrylamide/7 M urea gel. Precursor RNA was cut out of the gel and soaked in 400 μl elution buffer (10 mM Tris-HCl pH 7.5, 10 mM EDTA, 3.5 M NH4 OAc, 0.1% SDS) for two hours. After ethanol precipitation, the RNA was dissolved in H2 O-- before splicing experiments were performed the RNA was incubated in splicing buffer (40 mM Tris-HCl pH 7.5, 8 mM MgCl2, 0.4 mM spermidine) for 2 min at 56° C. For splicing of the suny intron and the Tetrahymena intron 50 mM NH4 Cl or 200 mM NaCl were added, respectively. Splicing was initiated by addition of guanosine at the appropriate concentration at 37° C. When splicing was to be inhibited by antibiotic, the antibiotic was added immediately before the guanosine. Splicing reactions were performed at 37° C. for 10'.

[2] = test system: sunY intron (shortened version, construct SYC1.3); assay: In vitro splicing inhibition of the sunY group I intron (GTP incorporation assay); assay type: biochemical, T4-phage
Procedure: as §1, with “DNA” for “Materials and Methods: In vitro splicing experiments were performed with a truncated version of the td gene, containing 79 nt of exon I, 265 nt of intron sequences containing only the catalytic core (delta P6-2) and 21 nt of exon H (Schroeder, von Ahsen, & Belfort, 199 1, Biochemistry 30, 3295). The plasmids containing the Tetrahymena rRNA intron and the yeast mitochondrial cob intron I (the group II intron) were pBGST7 (Been & Cech, 1986, Cell 47, 207) and pBSbIl (Schmelzer and Schweyen, 1986, Cell 46, 557), respectively. The sunY intron is described in Michel et al. (1990, Genes & Development 4, 777). DNA”, “10'. […] Samples were separated on 5% acrylamide/7 M urea gels.” for “10'.”

[3] = in vitro splicing, 37° C., 10 min

NC[C@@H]1O[C@H](O[C@H]2[C@@H](O)[C@H](O[C@@H]3[C@@H](O)[C@H](N)C[C@H](N)[C@H]3O[C@H]3O[C@H](CO)[C@@H](O)C[C@H]3N)O[C@@H]2CO)[C@H](N)[C@@H](O)[C@@H]1O[C@H]1O[C@H](CO)[C@@H](O)[C@H](O)[C@@H]1O [Lividomycin] was tested. Which IC50 [1, 3] did it give?
The IC50 was about 500 µM.

How did the “inhibition of group I splicing” value [1] turn out when CN[C@@H]1[C@H](O)[C@H](NC)[C@H]2O[C@@]3(O)C(=O)C[C@@H](C)O[C@H]3O[C@@H]2[C@H]1O [spectinomycin] was run?
Its value is “inactive”.

For O=C(N[C@H](CO)[C@H](O)c1ccc([N+](=O)[O-])cc1)C(Cl)Cl [chloramphenicol], which “ability to inhibit the group I intron splice reaction” value [1] is on record?
The value was “not able to inhibit”.

And the “inhibition of group I splicing” value [1]?
Its value is “inactive”.

Which IC50 [1] does the source give for Gentamicin C here?
Its IC50 is about 1 µM.

CN[C@H]1C[C@@H](N)[C@H](O)[C@@H](O[C@@H]2O[C@H](CO)[C@H](O)[C@@H]3OC4(O[C@H]23)O[C@H]([C@@H](N)CO)[C@H](O)[C@H](O)[C@H]4O)[C@@H]1O (some centres unmarked) [hygromycin B] was tested. Which “inhibition of group I splicing” value [1] did it give?
The value was “inactive”.

How did the “ability to inhibit the group I intron splice reaction” value [1] turn out when C=C[C@]1(C)C[C@@H](OC(=O)CSCCN(CC)CC)[C@]2(C)[C@H](C)CC[C@]3(CCC(=O)[C@H]32)[C@@H](C)[C@@H]1O [tiamulin] was run?
Its value is “not able to inhibit”.

With CN[C@@H]1[C@@H](O)[C@@H](O[C@@H]2[C@@H](O)[C@H](O[C@H]3O[C@H](CN)[C@@H](O)[C@H](O)[C@H]3O)[C@@H](N)C[C@H]2N)OC[C@]1(C)O [Gentamicin B] as the compound, how does the IC50 [1, 3] read?
The IC50 was about 10 µM.

With noursethricin as the compound, how does the “ability to inhibit the group I intron splice reaction” value [1] read?
The value was “not able to inhibit”.

With NC[C@@H]1O[C@H](O[C@H]2[C@@H](O)[C@H](O[C@@H]3[C@@H](O)[C@H](N)C[C@H](N)[C@H]3O[C@H]3O[C@H](CN)[C@@H](O)[C@H](O)[C@H]3N)O[C@@H]2CO)[C@H](N)[C@@H](O)[C@@H]1O [Neomycin B] as the compound, how does the “lowest concentration with splicing inhibition activity” value ([1]; activity at a concentration as low as) read?
Its value is 0.5 µM.

What about the “antibiotic concentration affecting the first step of splicing” value ([1]; first step affected only at this concentration) of the same compound?
The value was 100 µM.

And the IC50 [1, 3]?
Its IC50 is about 0.5 µM.

And the “concentration to which the sunY intron is sensitive” value [2]?
The value was 10 AM.

Which IC50 [1, 3] does the source give for NC[C@@H]1O[C@H](O[C@H]2[C@@H](O)[C@H](O[C@@H]3[C@@H](O)[C@H](N)C[C@H](N)[C@H]3O[C@H]3O[C@H](CO)[C@@H](O)[C@H](O)[C@H]3N)O[C@@H]2CO)[C@H](N)[C@@H](O)[C@@H]1O [Paromomycin] here?
The IC50 was about 100 µM.

For CN[C@@H]1[C@@H](O)[C@@H](O[C@@H]2[C@H](O)[C@H](O[C@H]3OC(CN)=CC[C@H]3N)[C@@H](N)C[C@H]2N)OC[C@]1(C)O [5-epi-Sisomicin], which IC50 [1, 3] is on record?
The IC50 was about 0.5 µM.

How did the IC50 [1, 3] turn out when CN[C@@H]1[C@@H](O)[C@@H](O[C@@H]2[C@@H](O)[C@H](O[C@H]3OC(CN)=CC[C@H]3N)[C@@H](N)C[C@H]2N)OC[C@]1(C)O [Sisomicin] was run?
Its IC50 is about 50 µM.

Which IC50 [1, 3] does the source give for CN[C@@H]1[C@@H](O[C@H]2O[C@H](CO)[C@@H](N)[C@H](O)[C@H]2O)OC2C[C@@H](N)[C@@H](O[C@H]3[C@H](O)[C@@H](O)[C@H](N)C[C@@H]3N)OC2[C@@H]1O (some centres unmarked) [Apramycin] here?
The IC50 was about 200 µM.

How did the IC50 [1, 3] turn out when CN[C@@H]1[C@@H](O)[C@@H](O[C@@H]2[C@@H](O)[C@H](O[C@H]3OC(CN)=CC[C@H]3N)[C@@H](N)C[C@H]2NC(C)=O)OC[C@]1(C)O [1-N-acetyl-Sisomicin] was run?
The IC50 was about 100 µM.

How did the IC50 [1, 3] turn out when NC[C@H]1O[C@H](O[C@H]2[C@H](O)[C@@H](O[C@H]3O[C@H](CO)[C@@H](O)[C@H](N)[C@H]3O)[C@H](N)C[C@@H]2N)[C@H](N)[C@@H](O)[C@@H]1O [Kanamycin B] was run?
The IC50 was about 10 µM.

NC[C@H]1O[C@H](O[C@H]2[C@H](O)[C@@H](O)[C@H](N)C[C@@H]2N)[C@H](N)[C@@H](O)[C@@H]1O [Neamine] was tested. Which IC50 [1, 3] did it give?
The IC50 was about 200 µM.

Which “inhibition of group I splicing” value [1] does the source give for C[C@H]1O[C@H](O[C@H]2[C@H](O)[C@@H](O)[C@@H](O)[C@H](O)[C@@H]2O)[C@@H](N)C[C@@H]1NC(=N)C(=O)O [kasugamycin] here?
Its value is “inactive”.

2"-phospho-Gentamicin C was tested. Which IC50 [1, 3] did it give?
The IC50 was about 100 µM.

Which “ability to inhibit the group I intron splice reaction” value [1] does the source give for CC[C@H]1OC(=O)[C@H](C)[C@@H](O[C@H]2C[C@@](C)(OC)[C@@H](O)[C@H](C)O2)[C@H](C)[C@@H](O[C@@H]2O[C@H](C)C[C@H](N(C)C)[C@H]2O)[C@](C)(O)C[C@@H](C)C(=O)[C@H](C)[C@@H](O)[C@]1(C)O [erythromycin] here?
Its value is “not able to inhibit”.

And the “inhibition of group I splicing” value [1]?
Its value is “inactive”.

How did the IC50 [1, 3] turn out when CN[C@@H]1[C@@H](O)[C@@H](O[C@@H]2[C@@H](O)[C@H](O)[C@@H](N)C[C@H]2N)OC[C@]1(C)O [Garamine] was run?
The IC50 was about 200 µM.

CNC1C(O)C(OC2C(N)CC(N)C(OC3OC(CN)CCC3N)C2O)OCC1(C)O (centres unmarked) [Dihydrosisomicin] was tested. Which IC50 [1, 3] did it give?
Its IC50 is about 100 µM.
